Data taken from US20260224563A1, “CRYSTALLINE FORMS OF 6-(3-((5-CHLORO-2-METHOXYPYRIDINE)-3-SULFONAMIDO)-2,6-DIFLUOROPHENYL)-N-METHYLIMIDAZO[1,5-A]PYRAZINE-1-CARBOXAMIDE AND METHODS FOR USING THE SAME” (HIBERCELL, INC., priority 2023, published 2026).
Where a name gives a salt, the structure may show the parent alone.

How the values were obtained:
Assay type in all cases: physicochemical
[1] = Dynamic vapor sorption (DVS); details: for DVS weight gain: 25° C., listed as Form III of the potassium salt
Method: Moisture sorption/desorption data was collected on a Vsorp Dynamic Moisture Sorption Analyzer (ProUmid GmbH & Co. KG, Germany). The sample was placed into a tared sample chamber and automatically weighed.
• Equilibrium Condition: 0.01%/40 min • Time between weighing cycles: 10 minutes • Minimum time per climate cycle: 50 minutes • Maximum time per climate cycle: 2.0 hour • Balanced condition: 25° C. at 60% […] for 4 hours • Sample temperature: 25° C. • Adsorption: 70, 80, 90 • Desorption: 80, 70, 60, 50, 40, 30, 20, 10, 0 • Adsorption: 10, 20, 30, 40, 50, 60

[2] = Slurry study of potassium salt Form III in organic solvents and water (XRPD)
Method: A slurry study of Form III of the potassium salt in an array of solvents was conducted at 25° C. and 50° C. Approximately 20 mg of Form III of the potassium salt was suspended in 0.5 mL of a solvent (EtOH, IPA, NBA, MEK, acetone, MTBE, EtOAc, IPAc, heptane, DCM, THE, MeCN, and water) and stirred at 25° C. or 50° C. for seven days. Then, the solid sample was collected by vacuum filtration and was analyzed by XRPD.

[3] = Water activity study of the crystalline potassium salt forms (acetone/water suspension, XRPD); details: KF wt. %>0.19, 25-50° C., KF wt. %~0.1, 25° C. in acetone/water
Method: A water activity study of the potassium salt forms was conducted in two groups: (i) Form I and Form III of the potassium salt, and (ii) Form II and Form III of the potassium salt.
Each suspension was shaken at 700 rpm in a shaker at 25° C., 35° C., 45° C., and 50° C., and the sample was analyzed by XRPD.

[4] = Mechanical (grinding) and tableting treatment of Form III of the potassium salt (XRPD)
Method: Form III of the potassium salt was ground manually (e.g., using a mortar and pestle) for 5 minutes. The ground sample was then analyzed by XRPD. No change in the crystal form was observed.
Tableting treatment of Form III of the potassium salt was conducted at 35 MPa pressure for 10 seconds using a tablet machine (HY-12, Tianjin Tianguang Optical Instrument Co., Ltd). The resulting solid was analyzed by XRPD. No change in the crystal form was observed after the tableting treatment. However, the crystallinity of Form III of the potassium salt decreased after the pressure test.

## CNC(=O)c1ncn2cc(-c3c(F)ccc(NS(=O)(=O)c4cc(Cl)cnc4OC)c3F)ncc12 [Potassium salt Form III, 6-(3-((5-chloro-2-methoxypyridine)-3-sulfonamido)-2,6-difluorophenyl)-N-methylimidazo[1,5-a]pyrazine-1-carboxamide]
[1]; 0 to 80% relative humidity
  DVS weight gain: around 0.18%
[1]; 0 to 90% relative humidity
  DVS weight gain: ~0.23%
[1]; 60 to 80% relative humidity
  DVS weight gain: around 0.13%
[1]; class by weight gain to 80% relative humidity
  Hygroscopicity (DVS): non-hygroscopic (non-hygroscopic may be defined as a <0.2% weight gain to 80% relative humidity)
[2]; slurry in Acetone, 25° C.
  Result at 3 days (XRPD): Potassium salt Form III
  Result at 7 days (XRPD): Potassium salt Form III
[2]; slurry in DCM, 25° C.
  Result at 3 days (XRPD): Potassium salt Form III
  Result at 7 days (XRPD): Potassium salt Form III
[2]; slurry in DCM, 50° C.
  Result at 3 days (XRPD): Potassium salt Form III
  Result at 7 days (XRPD): Potassium salt Form III
[2]; slurry in EtOAc, 25° C.
  Result at 3 days (XRPD): Potassium salt Form III
  Result at 7 days (XRPD): Potassium salt Form III
[2]; slurry in EtOAc, 50° C.
  Result at 3 days (XRPD): Potassium salt Form III
  Result at 7 days (XRPD): Potassium salt Form III
[2]; slurry in Heptane, 25° C.
  Result at 3 days (XRPD): Potassium salt Form III
  Result at 7 days (XRPD): Potassium salt Form III
[2]; slurry in Heptane, 50° C.
  Result at 3 days (XRPD): Potassium salt Form III
  Result at 7 days (XRPD): Potassium salt Form III
[2]; slurry in IPA, 25° C.
  Result at 3 days (XRPD): Potassium salt Form III
  Result at 7 days (XRPD): Potassium salt Form III
[2]; slurry in IPA, 50° C.
  Result at 3 days (XRPD): Potassium salt Form I
  Result at 7 days (XRPD): Potassium salt Form I
[2]; slurry in IPAc, 25° C.
  Result at 3 days (XRPD): Potassium salt Form III
  Result at 7 days (XRPD): Potassium salt Form III
[2]; slurry in IPAc, 50° C.
  Result at 3 days (XRPD): Potassium salt Form III
  Result at 7 days (XRPD): Potassium salt Form III
[2]; slurry in MEK, 25° C.
  Result at 3 days (XRPD): Potassium salt Form III
  Result at 7 days (XRPD): Potassium salt Form III
[2]; slurry in MEK, 50° C.
  Result at 3 days (XRPD): Potassium salt Form III
  Result at 7 days (XRPD): Potassium salt Form III
[2]; slurry in MTBE, 25° C.
  Result at 3 days (XRPD): Potassium salt Form III
  Result at 7 days (XRPD): Potassium salt Form III
[2]; slurry in MTBE, 50° C.
  Result at 3 days (XRPD): Potassium salt Form III
  Result at 7 days (XRPD): Potassium salt Form III
[2]; slurry in MeCN, 25° C.
  Result at 3 days (XRPD): Potassium salt Form III
  Result at 7 days (XRPD): Potassium salt Form III
[2]; slurry in MeCN, 50° C.
  Result at 3 days (XRPD): Potassium salt Form I
  Result at 7 days (XRPD): Potassium salt Form I
[2]; slurry in NBA, 25° C.
  Result at 3 days (XRPD): Potassium salt Form III
  Result at 7 days (XRPD): Potassium salt Form III
[2]; slurry in NBA, 50° C.
  Result at 3 days (XRPD): Potassium salt Form III
  Result at 7 days (XRPD): Potassium salt Form III
[2]; slurry in THF, 25° C.
  Result at 7 days (XRPD): Potassium salt Form III
[2]; slurry in THF, 50° C.
  Result at 7 days (XRPD): Potassium salt Form III
[3]; versus Form I of the potassium salt
  Relative stability of crystalline forms: more stable
[3]; versus Form II of the potassium salt
  Relative stability of crystalline forms: more stable
[4]; after tableting treatment at 35 MPa pressure for 10 seconds
  Crystallinity: decreased
[4]; ground manually for 5 minutes
  Change in the crystal form (XRPD): No change
[4]; tableting treatment at 35 MPa pressure for 10 seconds
  Change in the crystal form (XRPD): No change
